Measured values taken from patent publication US10130598B2, “Methods and compositions for administration of 3-halopyruvate and related compounds for the treatment of cancer” (The Johns Hopkins University, priority 2008, dated 2018).
pIC50: −log10 of the molar value.

Assays:
[1] = tested on: tumors implanted in rabbit livers; settings: cited from earlier work
[2] = General toxicology studies, oral NaHCO3-buffered 3-BrPA; format: in vivo, nude mice; settings: 100 and 200 mg/kg/day oral, single dose to 3-months of daily dosing
Method: General toxicology studies were conducted on nude mice that were orally administered NaHCO3-buffered 3-BrPA at doses of 0, 100 and 200 mg/kg/day. The duration of exposure in this study ranged from a single dose to 3-months of daily dosing. […] 3-BrPA treatment had no effect on body weight.

[3] = tested on: Hep3B, HepG2, SK-Hep1 and VX2 cells; test: Annexin V apoptosis assay (flow cytometry and fluorescent microscopy); format: cell-based
Method: The apoptosis of 3-BrPA treated cells was evaluated using Annexin V staining and the formation of active caspase-3. Cells treated with 3-BrPA were stained with anti-Annexin V and analyzed by flow cytometry as well as fluorescent microscopy. Flow cytometry was performed using a Becton-Dickinson FACSCalibur. The gating was done based on unstained control cells, Annexin V—PE stained and 7-AAD stained control cells. For fluorescent microscopy, Annexin V staining was performed using Annexin V staining Microscopy kit (BD Biosciences, USA) according to the protocol recommended by the manufacturer. In brief, cells grown in chambered slides were treated with either 3BrPA or the vehicle, washed once with ice-cold PBS followed by two washes with binding buffer, at the end of the treatment period. Cells were then incubated with the FITC-conjugated Annexin V fluorescent antibody for 15 min followed by a gentle wash. The cells were kept in binding buffer and images were observed captured using a Zeiss Axiovert 200 Microscope (Carl Zeiss Microimaging Inc., USA). Active caspase-3, an apoptotic marker, was identified by western blot analysis. Lysates prepared from equal numbers of cells treated with different concentrations of 3BrPA were subjected to SDS-PAGE electrophoresis and immunoblotting against active (cleaved) caspase-3.
In order to confirm that the cytotoxic effects of 3BrPA involves cellular apoptotic pathways, Annexin V levels and Caspase-3 activation was examined in cells treated with 3-BrPA. […] Additionally, immunoblotting of cell lysates with activated-Caspase-3 specific antibodies confirmed the activation of caspase-3 during 3BrPA mediated cell death (FIG. 8).

[4] = tested on: Hep3B cells; test: ATP dependent luminescence cell viability assay, Hep3B; format: cell-based
Source text: The non-small cell lung cancer (NSCLC) cell line NCI-H1299, the breast cancer cell lines MCF7 and MDA MB 231 and the Hep3B, Hep2G and SK-Hep1 cells were obtained from the American Type Culture Collection (ATCC) (Manassas, Va., USA) and maintained as a monolayer culture in Eagle's minimum essential medium (MEM, Invitrogen, Gaithersburg, Md., USA) supplemented with 10% fetal bovine serum at 37 C and 5% CO2. All treatments were done in triplicate samples on 96-well plates. VX2 cells were maintained as described in Geschwind et al., Cancer Res., 62:3909-3913 (2002).
Cytotoxicity of 3-BrPA was evaluated by the IC50 values, representing the drug concentration which depletes ATP by 50% compared to non-treated control. On day 1, cells were seeded into 96-well plates in a volume of 100 μl per well. On day 2, the medium of all wells was removed and an aliquot of 100 μl of media having serial dilutions of 3-BrPA in PBS, NaHCO3, NaOH, KOH and KHCO3 was added to the appropriate well. […] Briefly, 100 μl assay reagent was added to each well and mixed at room temperature for 2 min to develop luminescent signal. The luminescence intensity (cps) from each sample was determined with a spectrometer (Model Victor III, Perkin Elmer, Mass.). […]
The effects on cell viability and cellular metabolism of 3-BrPA on Hep3B and VX2 cells were examined using luminescence ATP assays, as described above. […]

[5] = tested on: H1299 cells; test: Luminescence ATP assay, H1299; format: cell-based
Method: Cytotoxicity of 3-BrPA was evaluated by the IC50 values, representing the drug concentration which depletes ATP by 50% compared to non-treated control. On day 1, cells were seeded into 96-well plates in a volume of 100 μl per well. On day 2, the medium of all wells was removed and an aliquot of 100 μl of media having serial dilutions of 3-BrPA in PBS, NaHCO3, NaOH, KOH and KHCO3 was added to the appropriate well. After 24 h of drug exposure cytotoxic effects of 3-BrPA were monitored by cellular ATP level using CellTiter-Glo™ assay reagents from Promega Corp (Madison, Wis.). Briefly, 100 μl assay reagent was added to each well and mixed at room temperature for 2 min to develop luminescent signal. The luminescence intensity (cps) from each sample was determined with a spectrometer (Model Victor III, Perkin Elmer, Mass.). Relative luminescence was calculated in proportion to the numbers of living cells per sample well. The results are expressed as the mean of three independent experiments. The intracellular ATP contents were calculated and normalized by equal cell number and expressed as the percentage of the control cells. The IC50 values were estimated graphically from dose-response plots.
The anti-metabolic effect of 3-BrPA on H1299 cells was examined using luminescence ATP assays, as described above. […]

Compound: O=C(O)C(=O)CBr [3-BrPA, 3-bromopyruvate]
- Tumor eradication ([1]; administered directly into the liver by intra-arterial injection): completely eradicate tumors
- Therapeutic dose ([1]; in 25 ml of PBS, continuous 1 hour intra-arterial infusion): 1.75 mM
- Biodistribution: tumor uptake ([1]; intra-arterially delivered): high tumor uptake
- Effects on healthy tissue ([1]; intra-arterially delivered): no negative effects on healthy tissue
- Clinical symptoms [2]: did not exhibit any treatment related clinical symptoms
- Effect on body weight [2]: no effect
- Mortality [2]: no mortalities
- Organ weights, gross pathology and histopathology [2]: did not show any treatment-related changes
- Annexin V positive cells (flow cytometry) ([3]; Annexin V-PE and 7-AAD staining, 100 and 200 μM): dose dependent increase
- Number of apoptotic cells compared with control ([3]; all cell lines, after 2 hours of treatment, 200 μM): significant increase
- Annexin V staining (photomicrographs) ([3]; treated vs control): elevated levels of Annexin V
- Level of ATP ([4]; 3, 24, 48 hours): dose and time dependent decrease
- pIC50 ([4]; at 48 hours, read-out: IC50 (ATP depletion)): 3.90
- ATP level (bioluminescent quantification) [5]: dose and time dependent energy (ATP) depletion
